Where two headings read alike, the source gives them in different places.
Assays:
[1] = cited from earlier work
[2] = aqueous solubility of carvedilol phosphate salts compared with free base and other salts; format: physicochemical; settings: novel crystalline forms

In the case of COc1ccccc1OCCNCC(O)COc1cccc2[nH]c3ccccc3c12.Cl (centres unmarked) [hydrochloride salt of carvedilol], the “solubility in acidic medium” value ([1]; salt generated in situ in acidic medium, which simulates gastric fluid) is given as “less soluble”.

For COc1ccccc1OCCNCC(O)COc1cccc2[nH]c3ccccc3c12.O=P(O)(O)O (centres unmarked) [carvedilol dihydrogen phosphate], the “solubility compared to the free base of carvedilol” value [2] was “much higher solubility”.

In the case of COc1ccccc1OCCNCC(O)COc1cccc2[nH]c3ccccc3c12 (racemic) [Carvedilol], the solubility ([1]; neutral or alkaline media, above a pH of 9.0) is given as < 1 µg/mL, the saturation solubility ([1]; pH=5, room temperature) is given as “about 100 μg/mL” and the saturation solubility ([1]; pH=7, room temperature) is given as “about 23 μg/mL”.

— patent US7759384B2, “Carvedilol phosphate salts and/or solvates thereof, corresponding compositions, and/or methods of treatment” (SmithKline Beecham (Cork) Limited, priority 2002, dated 2010)
